Data: PMC6366423 (Journal of Enzyme Inhibition and Medicinal Chemistry, 2019)
Several values for one entry are separate records, joined by “and”; a condition that tells them apart may be missing. Equal entries are not always repeated. Where two headings read alike, the source gives them in different places.

What was measured:
hAChE = molecular target: T1, hAChE (Homo sapiens, UniProt P22303); test: biochemical; type: biochemical; conditions: for inhibition at 10 µM: read-out: hAChE enzymatic inhibition (%); for IC50: mean ± SEM
T1 construct: purchased Sigma Aldrich; host or cells: HEK 293

hBuChE = molecular target: T2, hBuChE (Homo sapiens, UniProt P06276); test: biochemical; type: biochemical; conditions: for IC50: mean ± SEM; for inhibition at 10 µM: read-out: hBuChE enzymatic inhibition (%)
T2 construct: hBuChE from human serum (Sigma Aldrich, Madrid, Spain); purchased Sigma Aldrich; host or cells: human serum

[1] = Oxygen radical absorbance capacity assay (ORAC-FL); conditions: Trolox equivalents (TE), mean (n = 3) ± SD
EeAChE = molecular target: T3, EeAChE (Electrophorus electricus, UniProt O42275); test: biochemical; conditions: for inhibition at 10 µM: read-out: EeAChE enzymatic inhibition (%)
T3 construct: EeAChE (type VI-S, purified from Electrophorus electricus); tissue type VI-S
Description: (§1) Inhibition of EeAChE and eqBuChE of hybrids 14a–p was carried out with EeAChE (type VI-S, purified from Electrophorus electricus) and eqBuChE (purified from equine serum) using Ellman’s protocol. Briefly, the reaction was performed in a final volume of 3 ml of a phosphate-buffered solution (0.1 M) at pH = 8.0 containing 5,5’-dithiobis-2-nitrobenzoic acid (DTNB) (2.625 μL, 0.35 mM), EeAChE (29 μl, 0.035 U/mL) or eqBuChE (60 μl, 0.05 U/mL), Bovine Albumin Serum phosphate-buffered solution (40 μL 1% w/v), and tested compound (3 µL). After 10 min of incubation, the substrate, AcTCh) iodide or butyrylthiocholine (BuTCh) iodide, was added, and the reaction was incubated for an additional 15 min.

hMAOB = molecular target: T4, hMAOB (Homo sapiens, UniProt P27338); test: MAO activity assay (kynuramine, HPLC-MS); type: biochemical; conditions: for inhibition at 10 µM: read-out: hMAOB enzymatic inhibition (%); for IC50: IC50 hMAOB, mean ± SEM
T4 sequence (P27338 1-520): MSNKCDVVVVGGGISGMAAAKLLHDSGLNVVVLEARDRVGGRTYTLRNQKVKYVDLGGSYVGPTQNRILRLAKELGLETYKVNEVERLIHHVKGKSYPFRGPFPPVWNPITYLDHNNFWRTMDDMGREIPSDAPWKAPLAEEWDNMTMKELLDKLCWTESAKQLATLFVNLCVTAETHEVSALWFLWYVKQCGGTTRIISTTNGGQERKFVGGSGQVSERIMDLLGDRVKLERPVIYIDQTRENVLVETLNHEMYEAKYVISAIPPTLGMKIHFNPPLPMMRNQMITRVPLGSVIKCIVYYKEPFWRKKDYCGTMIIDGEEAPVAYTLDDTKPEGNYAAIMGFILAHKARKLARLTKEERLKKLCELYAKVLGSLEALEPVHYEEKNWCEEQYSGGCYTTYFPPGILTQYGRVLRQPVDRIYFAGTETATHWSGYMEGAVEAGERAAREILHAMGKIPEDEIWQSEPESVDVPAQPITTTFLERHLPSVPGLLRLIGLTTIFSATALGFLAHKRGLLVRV

eqBuChE = molecular target: T5, eqBuChE (Equus caballus, UniProt P81908); test: biochemical; type: biochemical, equine; conditions: for IC50: mean ± SEM
T5 construct: eqBuChE (purified from equine serum); from tissue; host or cells: equine serum
Description: as §1

hMAOA = molecular target: T6, hMAOA (Homo sapiens, UniProt P21397); test: MAO activity assay (kynuramine, HPLC-MS); type: biochemical; conditions: for inhibition at 10 µM: read-out: hMAOA enzymatic inhibition (%)
T6 sequence (P21397 1-527): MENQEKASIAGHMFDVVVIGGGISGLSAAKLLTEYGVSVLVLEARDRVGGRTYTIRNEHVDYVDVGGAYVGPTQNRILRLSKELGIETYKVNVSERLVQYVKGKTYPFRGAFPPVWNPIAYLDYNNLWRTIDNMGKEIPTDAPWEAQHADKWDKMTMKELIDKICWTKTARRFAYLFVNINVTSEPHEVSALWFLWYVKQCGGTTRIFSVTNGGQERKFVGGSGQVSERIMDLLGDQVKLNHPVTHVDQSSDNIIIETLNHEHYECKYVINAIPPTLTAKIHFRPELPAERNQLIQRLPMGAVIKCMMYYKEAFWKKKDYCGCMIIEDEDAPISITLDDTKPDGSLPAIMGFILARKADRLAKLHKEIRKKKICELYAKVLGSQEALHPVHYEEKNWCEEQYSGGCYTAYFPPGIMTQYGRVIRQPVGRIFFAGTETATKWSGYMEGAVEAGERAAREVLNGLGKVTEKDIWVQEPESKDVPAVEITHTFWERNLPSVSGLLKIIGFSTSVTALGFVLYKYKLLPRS

[2] = ORAC-FL, positive reference molecules; cited from earlier work

T3 sequence (O42275 24-633): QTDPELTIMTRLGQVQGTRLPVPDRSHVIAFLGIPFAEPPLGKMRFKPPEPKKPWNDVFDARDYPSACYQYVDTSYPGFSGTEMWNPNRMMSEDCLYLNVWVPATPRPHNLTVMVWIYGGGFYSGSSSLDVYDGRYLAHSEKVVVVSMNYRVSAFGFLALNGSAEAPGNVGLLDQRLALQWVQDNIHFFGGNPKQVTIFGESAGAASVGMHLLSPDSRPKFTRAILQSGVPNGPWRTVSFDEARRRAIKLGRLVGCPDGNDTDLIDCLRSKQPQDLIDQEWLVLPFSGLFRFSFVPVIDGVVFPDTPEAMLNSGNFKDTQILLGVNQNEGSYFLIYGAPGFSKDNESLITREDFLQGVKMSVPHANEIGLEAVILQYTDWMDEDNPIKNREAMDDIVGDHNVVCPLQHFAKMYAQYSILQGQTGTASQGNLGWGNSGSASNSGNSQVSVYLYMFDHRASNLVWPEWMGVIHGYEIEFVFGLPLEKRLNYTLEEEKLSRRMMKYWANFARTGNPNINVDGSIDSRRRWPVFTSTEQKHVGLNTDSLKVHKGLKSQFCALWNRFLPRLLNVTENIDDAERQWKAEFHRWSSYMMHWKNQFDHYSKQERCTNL
T2 sequence (P06276 29-602): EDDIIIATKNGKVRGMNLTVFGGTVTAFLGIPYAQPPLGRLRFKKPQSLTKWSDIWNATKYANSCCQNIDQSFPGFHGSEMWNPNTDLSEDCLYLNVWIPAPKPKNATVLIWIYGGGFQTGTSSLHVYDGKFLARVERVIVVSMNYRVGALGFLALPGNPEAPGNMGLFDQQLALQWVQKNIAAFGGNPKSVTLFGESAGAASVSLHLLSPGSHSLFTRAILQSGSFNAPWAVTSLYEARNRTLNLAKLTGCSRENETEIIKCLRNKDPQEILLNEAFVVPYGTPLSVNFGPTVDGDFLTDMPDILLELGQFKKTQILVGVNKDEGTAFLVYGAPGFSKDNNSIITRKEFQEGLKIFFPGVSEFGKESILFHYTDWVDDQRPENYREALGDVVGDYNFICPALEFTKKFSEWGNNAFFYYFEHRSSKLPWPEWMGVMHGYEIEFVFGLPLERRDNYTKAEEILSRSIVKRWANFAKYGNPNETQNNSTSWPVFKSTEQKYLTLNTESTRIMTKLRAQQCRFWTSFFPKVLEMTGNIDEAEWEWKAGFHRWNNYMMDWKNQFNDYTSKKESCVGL
T5 sequence (P81908 whole entry): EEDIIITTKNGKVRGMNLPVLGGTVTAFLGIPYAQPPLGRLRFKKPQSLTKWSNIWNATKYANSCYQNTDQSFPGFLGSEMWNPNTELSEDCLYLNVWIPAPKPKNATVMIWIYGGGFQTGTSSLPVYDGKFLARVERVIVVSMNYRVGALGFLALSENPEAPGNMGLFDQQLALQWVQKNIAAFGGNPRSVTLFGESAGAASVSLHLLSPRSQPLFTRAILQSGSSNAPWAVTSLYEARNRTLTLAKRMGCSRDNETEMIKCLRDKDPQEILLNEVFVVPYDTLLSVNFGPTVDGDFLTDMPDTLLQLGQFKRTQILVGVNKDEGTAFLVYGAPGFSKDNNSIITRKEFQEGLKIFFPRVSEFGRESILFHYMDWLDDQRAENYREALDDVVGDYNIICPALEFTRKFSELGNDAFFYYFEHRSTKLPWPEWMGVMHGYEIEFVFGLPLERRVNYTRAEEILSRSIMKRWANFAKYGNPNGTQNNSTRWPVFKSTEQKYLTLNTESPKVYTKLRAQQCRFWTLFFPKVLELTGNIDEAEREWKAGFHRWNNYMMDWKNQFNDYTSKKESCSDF
T1 sequence (P22303 32-614): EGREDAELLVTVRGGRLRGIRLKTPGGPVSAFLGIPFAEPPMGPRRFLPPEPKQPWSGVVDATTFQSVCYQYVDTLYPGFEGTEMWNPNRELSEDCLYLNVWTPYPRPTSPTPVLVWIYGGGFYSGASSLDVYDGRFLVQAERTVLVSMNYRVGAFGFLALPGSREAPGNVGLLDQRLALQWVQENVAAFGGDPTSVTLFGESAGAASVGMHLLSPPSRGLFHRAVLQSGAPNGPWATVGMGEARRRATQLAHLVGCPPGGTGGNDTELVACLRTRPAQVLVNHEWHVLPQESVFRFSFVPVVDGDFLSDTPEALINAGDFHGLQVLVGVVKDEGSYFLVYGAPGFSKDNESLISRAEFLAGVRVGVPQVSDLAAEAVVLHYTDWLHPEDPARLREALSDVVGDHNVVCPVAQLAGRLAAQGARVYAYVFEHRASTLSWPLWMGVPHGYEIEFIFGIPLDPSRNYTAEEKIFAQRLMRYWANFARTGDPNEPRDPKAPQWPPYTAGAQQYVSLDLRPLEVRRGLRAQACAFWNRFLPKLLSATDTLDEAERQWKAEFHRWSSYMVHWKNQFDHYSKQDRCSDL

SMILES | inhibition at 10 µM (hAChE; at 10 μM) | IC50 (hBuChE) | ORAC (Eq Trolox) [1] | inhibition at 10 µM (hMAOB) | IC50 (eqBuChE) | inhibition at 10 µM (hBuChE) | inhibition at 10 µM (hMAOA) | IC50 (hAChE) | IC50 (EeAChE; mean ± SEM) | other results
O=C(CN(CC1CCN(Cc2ccccc2)CC1)C(=O)c1cc(=O)c2ccccc2o1)NCCc1c[nH]c2ccccc12 [14a] | < 50% | 1170 nM | 6.28 ± 0.12 Eq Trolox | < 40% | 496 ± 7.07 nM | – | – | – | – | inhibition at 10 µM (EeAChE): < 50%; IC50 (hMAOA): 2000 nM
COc1ccc2[nH]cc(CCNC(=O)CN(CC3CCN(Cc4ccccc4)CC3)C(=O)c3cc(=O)c4ccccc4o3)c2c1 [14b] | < 50% | – | 6.24 ± 0.05 Eq Trolox | < 40% | 636 ± 11.6 nM | < 50% | < 40% | – | – | inhibition at 10 µM (EeAChE): < 50%
CC(C)Oc1ccc2[nH]cc(CCNC(=O)CN(CC3CCN(Cc4ccccc4)CC3)C(=O)c3cc(=O)c4ccccc4o3)c2c1 [14c] | < 50% | – | 6.11 ± 0.07 Eq Trolox | < 40% | 246 ± 9.91 nM | < 50% | < 40% | – | – | inhibition at 10 µM (EeAChE): < 50%
CCCOc1ccc2[nH]cc(CCNC(=O)CN(CC3CCN(Cc4ccccc4)CC3)C(=O)c3cc(=O)c4ccccc4o3)c2c1 [14d] | < 50% | – | 6.76 ± 0.09 Eq Trolox | – | 46.9 ± 3.41 nM | < 50% | < 40% | – | – | inhibition at 10 µM (EeAChE): < 50%
O=C(CN(CCC1CCN(Cc2ccccc2)CC1)C(=O)c1cc(=O)c2ccccc2o1)NCCc1c[nH]c2ccccc12 [14e] | – | 33.3 ± 0.55 nM | 6.52 ± 0.37 Eq Trolox | < 40% | 29.6 ± 2.38 nM | – | < 40% | 2620 ± 530 nM | 1430 ± 50 nM | –
COc1ccc2[nH]cc(CCNC(=O)CN(CCC3CCN(Cc4ccccc4)CC3)C(=O)c3cc(=O)c4ccccc4o3)c2c1 [14f] | – | 271.8 ± 1.75 nM | 6.13 ± 0.09 Eq Trolox | – | 26 ± 2.37 nM | – | < 40% | 360 ± 160 nM | – | hAChE, fold less active than Donepezil (hAChE): 15 fold; IC50 (hMAOB): 80600 ± 13900 nM
CC(C)Oc1ccc2[nH]cc(CCNC(=O)CN(CCC3CCN(Cc4ccccc4)CC3)C(=O)c3cc(=O)c4ccccc4o3)c2c1 [14g] | – | 25 ± 0.2 nM | 5.05 ± 0.15 Eq Trolox | < 40% | 6.29 ± 0.73 nM | – | < 40% | 2000 ± 70 nM | 1050 ± 60 nM | eqBuChE potency, fold more potent than Donepezil (eqBuChE): 133 fold
CCCOc1ccc2[nH]cc(CCNC(=O)CN(CCC3CCN(Cc4ccccc4)CC3)C(=O)c3cc(=O)c4ccccc4o3)c2c1 [14h] | – | 63.9 ± 2.55 nM | 6.07 ± 0.02 Eq Trolox | < 40% | 6.76 ± 0.49 nM | – | < 40% | 2040 ± 660 nM | 850 ± 20 nM | eqBuChE potency, fold more potent than Donepezil (eqBuChE): 133 fold
O=C(CN(CCCC1CCN(Cc2ccccc2)CC1)C(=O)c1cc(=O)c2ccccc2o1)NCCc1c[nH]c2ccccc12 [14i] | < 50% | – | 6.92 Eq Trolox | < 40% | 50.1 ± 5.19 nM | < 50% | < 40% | – | 260 ± 10 nM | ORAC (Eq Trolox) ([1]; listed as [14]i): 6.92 ± 0.32 Eq Trolox
COc1ccc2[nH]cc(CCNC(=O)CN(CCCC3CCN(Cc4ccccc4)CC3)C(=O)c3cc(=O)c4ccccc4o3)c2c1 [14j] | < 50% | – | 3.31 ± 0.10 Eq Trolox | < 40% | 37.1 ± 0.46 nM | < 50% | < 40% | – | 270 nM | –
CC(C)Oc1ccc2[nH]cc(CCNC(=O)CN(CCCC3CCN(Cc4ccccc4)CC3)C(=O)c3cc(=O)c4ccccc4o3)c2c1 [14k] | – | 34.9 ± 0.85 nM | 2.27 Eq Trolox | – | 18.21 ± 0.18 nM | – | – | – | 360 ± 10 nM | hAChE enzymatic inhibition (%) (hAChE; at 10 μM): – ^b; ORAC (Eq Trolox) ([1]; listed as [14]k): 2.27 ± 0.37 Eq Trolox; IC50 (hMAOB): 15200 nM; IC50 (hMAOA): 2990 ± 160 nM
CCCOc1ccc2[nH]cc(CCNC(=O)CN(CCCC3CCN(Cc4ccccc4)CC3)C(=O)c3cc(=O)c4ccccc4o3)c2c1 [14l] | < 50% | – | 2.44 ± 0.16 Eq Trolox | < 40% | 9.03 ± 0.18 nM | < 50% | < 40% | – | 380 ± 10 nM | –
O=C(CN(CCCCC1CCN(Cc2ccccc2)CC1)C(=O)c1cc(=O)c2ccccc2o1)NCCc1c[nH]c2ccccc12 [14m] | < 50% | – | 2.97 ± 0.16 Eq Trolox | < 40% | 355 ± 8.41 nM | < 50% | < 40% | – | 60 nM | IC50 (EeAChE; values given in nM): 58.2 nM
COc1ccc2[nH]cc(CCNC(=O)CN(CCCCC3CCN(Cc4ccccc4)CC3)C(=O)c3cc(=O)c4ccccc4o3)c2c1 [14n, N-(4–(1-benzylpiperidin-4-yl)butyl)-N-(2-((2–(5-methoxy-1H-indol-3-yl)ethyl)amino)-2-oxoethyl)-4-oxo-4H-chromene-2-carboxamide] | – | 11.9 ± 0.05 nM | 3.04 Eq Trolox | – | 43.4 ± 1.37 nM | – | – | 1730 ± 340 nM | 480 ± 10 nM | hBuChE, fold less active than Tacrine (hBuChE): 2 fold; ORAC (Eq Trolox) ([1]; listed as [14]n): 3.04 ± 0.36 Eq Trolox; IC50 (hMAOB): 21300 nM; IC50 (hMAOA): 2780 ± 120 nM
CC(C)Oc1ccc2[nH]cc(CCNC(=O)CN(CCCCC3CCN(Cc4ccccc4)CC3)C(=O)c3cc(=O)c4ccccc4o3)c2c1 [14o] | < 50% | – | 2.63 ± 0.12 Eq Trolox | < 40% | 46.6 ± 2.76 nM | < 50% | < 40% | – | 90 nM | IC50 (EeAChE; values given in nM): 88.5 nM
CCCOc1ccc2[nH]cc(CCNC(=O)CN(CCCCC3CCN(Cc4ccccc4)CC3)C(=O)c3cc(=O)c4ccccc4o3)c2c1 [14p] | – | 80.4 ± 12.4 nM | 2.67 ± 0.15 Eq Trolox | < 40% | 61.3 ± 5.48 nM | – | – | 2100 ± 510 nM | 80 nM | IC50 (hMAOA): 1390 ± 110 nM
COc1cc(/C=C/C(=O)O)ccc1O [Ferulic acid] | – | – | – | – | – | – | – | – | – | ORAC (Eq Trolox) [2]: 3.74 Eq Trolox and 3.74 ± 0.22 Eq Trolox
Nc1c2c(nc3ccccc13)CCCC2 [Tacrine, reference compound] | – | – | 0.2 ± 0.1 Eq Trolox | – | – | – | – | – | – | –
